Experimental data reported in ChEMBL document CHEMBL3826944, “Syringaresinol induces mitochondrial biogenesis through activation of PPARβ pathway in skeletal muscle cells” (Bioorg Med Chem Lett, 2016).
The source made the active and inactive calls.

How the values were obtained:
C2C12 [1] = assay: Upregulation of PPARbeta protein expression in PPARbeta siRNA transfected mouse C2C12 myotubes at 1 uM after 24 hrs by immunoblot method; format: functional, cell-based
C2C12 [2] = assay: Upregulation of CPT1 protein expression in PPARbeta siRNA transfected mouse C2C12 myotubes at 1 uM after 24 hrs by immunoblot method relative to control; format: functional, cell-based
Mus musculus [3] = species: Mus musculus; assay: Activation of AMPK in mouse C2C12 myotubes assessed as increase in expression of phosphorylated AMPK at Thr-172 residue at 1 uM after 24 hrs by immunoblot method
C2C12 [4] = assay: Induction of SIRT1 protein expression in mouse C2C12 myotubes at 1 uM after 24 hrs by immunoblot method; format: functional, cell-based
C2C12 [5] = assay: Upregulation of UCP2 protein expression in PPARbeta siRNA transfected mouse C2C12 myotubes at 1 uM after 24 hrs by immunoblot method relative to control; format: functional, cell-based
C2C12 [6] = assay: Upregulation of PGC1-alpha protein expression in PPARbeta siRNA transfected mouse C2C12 myotubes at 1 uM after 24 hrs by immunoblot method relative to control; format: functional, cell-based
C2C12 [7] = assay: Upregulation of PPARbeta protein expression in PPARbeta siRNA transfected mouse C2C12 myotubes at 50 uM after 24 hrs by immunoblot method; format: functional, cell-based
C2C12 [8] = assay: Induction of PPARbeta mRNA expression in mouse C2C12 myotubes at 50 uM after 24 hrs by qRT-PCR method relative to control; format: functional
C2C12 [9] = assay: Induction of PPARbeta protein expression in mouse C2C12 myotubes at <50 uM after 24 hrs by immunoblot method; format: functional, cell-based
C2C12 [10] = assay: Induction of PPARbeta mRNA expression in mouse C2C12 myotubes at <50 uM after 24 hrs by qRT-PCR method; format: functional, cell-based
C2C12 [11] = assay: Induction of PPARbeta protein expression in mouse C2C12 myotubes at 50 uM after 24 hrs by immunoblot method; format: functional, cell-based
C2C12 [12] = assay: Induction of mitochondrial DNA content in scramble siRNA transfected mouse C2C12 myotubes at 50 uM after 24 hrs by qRT-PCR method; format: functional, cell-based
C2C12 [13] = assay: Upregulation of PGC1-alpha protein expression in PPARbeta siRNA transfected mouse C2C12 myotubes at 50 uM after 24 hrs by immunoblot method relative to control; format: functional, cell-based
C2C12 [14] = assay: Induction of mitochondrial biogenesis in mouse C2C12 myotubes assessed as increase in mitochondrial density at 25 uM after 24 hrs by Mitotracker Green staining based fluorescence microscopic analysis relative to control; format: functional
[15] = molecular target: T1, Peroxisome proliferator-activated receptor delta (Mus musculus) (UniProt P35396); assay: Activation of PPARbeta in mouse C2C12 myotubes assessed as increase in PGC-1alpha mRNA level at 10 to 25 uM after 24 hrs by qRT-PCR method
T1 sequence (whole entry): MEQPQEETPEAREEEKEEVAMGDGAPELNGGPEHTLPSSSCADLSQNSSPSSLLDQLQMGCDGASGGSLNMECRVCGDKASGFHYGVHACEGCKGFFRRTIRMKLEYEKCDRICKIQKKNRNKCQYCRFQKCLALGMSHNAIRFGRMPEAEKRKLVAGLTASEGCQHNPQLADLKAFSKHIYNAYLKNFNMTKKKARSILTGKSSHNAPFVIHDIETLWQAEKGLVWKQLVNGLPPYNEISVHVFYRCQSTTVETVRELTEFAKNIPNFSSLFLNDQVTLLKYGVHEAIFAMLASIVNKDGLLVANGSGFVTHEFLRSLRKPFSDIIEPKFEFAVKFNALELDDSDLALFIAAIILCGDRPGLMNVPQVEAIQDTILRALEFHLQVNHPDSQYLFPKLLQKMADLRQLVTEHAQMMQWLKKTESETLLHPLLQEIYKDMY

[16] = molecular target: T2, Peroxisome proliferator-activated receptor delta (Homo sapiens) (UniProt Q03181); assay: (§1) Activation of PPARbeta-LBD (unknown origin) assessed as fluorescein-labeled coactivator C33 recruitment by TR-FRET assay
T2 sequence (whole entry): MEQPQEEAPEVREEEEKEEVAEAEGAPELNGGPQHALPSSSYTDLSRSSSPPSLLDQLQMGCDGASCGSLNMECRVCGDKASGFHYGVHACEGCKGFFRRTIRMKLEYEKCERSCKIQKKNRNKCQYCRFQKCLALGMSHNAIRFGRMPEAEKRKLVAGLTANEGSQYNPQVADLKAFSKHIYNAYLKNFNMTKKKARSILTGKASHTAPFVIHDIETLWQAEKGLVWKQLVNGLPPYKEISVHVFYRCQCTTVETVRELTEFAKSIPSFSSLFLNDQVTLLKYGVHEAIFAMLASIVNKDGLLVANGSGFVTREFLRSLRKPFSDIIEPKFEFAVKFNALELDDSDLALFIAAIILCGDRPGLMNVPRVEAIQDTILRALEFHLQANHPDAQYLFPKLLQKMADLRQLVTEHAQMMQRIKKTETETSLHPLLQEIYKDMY

[17] = molecular target: T3, Peroxisome proliferator-activated receptor delta (Homo sapiens, UniProt Q03181); assay: as §1
T3 sequence (Q03181 whole entry): T2 sequence (whole entry)

C2C12 [18] = assay: Induction of mitochondrial biogenesis in mouse C2C12 myotubes assessed as increase in mitochondrial DNA content at 25 to 50 uM after 24 hrs by qRT-PCR method; format: functional, cell-based
[19] = molecular target: T1, Peroxisome proliferator-activated receptor delta (Mus musculus); assay: Activation of PPARbeta in mouse C2C12 myotubes assessed as increase in PGC-1alpha protein expression at 10 to 25 uM after 24 hrs by immunoblot method
C2C12 [20] = assay: Induction of mitochondrial density in scramble siRNA transfected mouse C2C12 myotubes at 50 uM after 24 hrs by Mitotracker Green staining based fluorescence microscopic analysis; format: functional, cell-based
Mus musculus [21] = species: Mus musculus; assay: Activation of AMPK in mouse C2C12 myotubes assessed as increase in expression of phosphorylated AMPK at Thr-172 residue at 50 uM after 24 hrs by immunoblot method
C2C12 [22] = assay: Induction of mitochondrial biogenesis in mouse C2C12 myotubes assessed as increase in mitochondrial density at 50 uM after 24 hrs by Mitotracker Green staining based fluorescence microscopic analysis relative to control; format: functional
[23] = molecular target: T3, Peroxisome proliferator-activated receptor delta; assay: Binding affinity to recombinant PPARbeta-LBD (254 to 441 residues) (unknown origin) expressed in Escherichia coli Rosetta2 cells by isothermal titration calorimetry
C2C12 [24] = assay: Upregulation of UCP2 protein expression in PPARbeta siRNA transfected mouse C2C12 myotubes at 50 uM after 24 hrs by immunoblot method relative to control; format: functional, cell-based
C2C12 [25] = assay: Induction of mitochondrial DNA content in PPARbeta siRNA transfected mouse C2C12 myotubes at 50 uM after 24 hrs by qRT-PCR method; format: functional, cell-based
C2C12 [26] = assay: Upregulation of CPT1 protein expression in PPARbeta siRNA transfected mouse C2C12 myotubes at 50 uM after 24 hrs by immunoblot method relative to control; format: functional, cell-based
C2C12 [27] = assay: Induction of SIRT1 protein expression in mouse C2C12 myotubes at 50 uM after 24 hrs by immunoblot method; format: functional, cell-based
C2C12 [28] = assay: Induction of mitochondrial density in PPARbeta siRNA transfected mouse C2C12 myotubes at 50 uM after 24 hrs by Mitotracker Green staining based fluorescence microscopic analysis; format: functional, cell-based

Cc1cc(SCc2sc(-c3ccc(C(F)(F)F)c(F)c3)nc2C)ccc1OCC(=O)O
inactive: Activity (C2C12 [1]) | Activity (C2C12 [2]) | Activity (C2C12 [5]) | Activity (C2C12 [6])
active: Activity (Mus musculus [3]) | Activity (C2C12 [4])

COc1cc([C@H]2OC[C@H]3[C@@H]2CO[C@@H]3c2cc(OC)c(O)c(OC)c2)cc(OC)c1O [SYRINGARESINOL]
active: Activity (C2C12 [11]) | Activity (C2C12 [12]) | Activity [15] | Activity [16] Dose-dependent effect | Activity (C2C12 [18]) Dose-dependent effect | Activity [19] | Activity (C2C12 [20])
27.6 µM: Kd [23]
14%: Activity (C2C12 [14])
18%: Activity (C2C12 [22])
18.1 µM: EC50 [17]
>2: fold change (FC) (C2C12 [8])
inactive: Activity (C2C12 [7]) | Activity (C2C12 [9]) | Activity (C2C12 [10]) | Activity (C2C12 [13]) | Activity (Mus musculus [21]) | Activity (C2C12 [24]) | Activity (C2C12 [25]) | Activity (C2C12 [26]) | Activity (C2C12 [27]) | Activity (C2C12 [28])
